Test results as given in patent publication US20230172920A1, “DOSING REGIMEN FOR TREATING A DISEASE MODULATED BY CSF-1R” (Novartis AG, priority 2020, published 2023).

Experiments:
[1] = system: MC38 syngeneic mouse model; experiment: MC38 syngeneic mouse model, tumor growth; format: in vivo, C57BL/6N mice; conditions: repeat with suboptimal anti-PD-1 dose (5 mg/kg); BLZ945 4 days on/3 days off
Experimental: In another set of experiments using the MC38 syngeneic mouse model in C57BL/6N mice two different schedules of BLZ945 were compared for efficacy (FIG. 3) using once weekly dosing of BLZ945 and 4 days on/3 days off dosing of BLZ945 alone and in combination with anti-PD-1. […] On day 14 post treatment start, there was a trend of tumor growth inhibition, corresponding to a % T/C vs. control of 28%.
Doses of 200 mg/kg BLZ945 and 10 mg/kg anti-PD-1 were given on the schedules indicated and tumor volumes measured on day 14 after study initiation. Statistical significance was calculated using one-way ANOVA with post hoc Dunnett's test for comparison of treatment versus control group.
Efficacy testing was repeated with a suboptimal dose of anti-PD-1 (5 mg/kg) in order to test for an additive effect of BLZ945 to be observed when given in combination.

[2] = Phase I/II first-in-human study CBLZ945X2101: adverse events; format: in vivo
Excerpt: The purpose of this first-in-human (FIH) study of BLZ945 given as a single agent or in combination with spartalizumab is to characterize the safety, tolerability, pharmacokinetics (PK), pharmacodynamics, and anti-tumor activity of BLZ945, administered orally, as a single agent or in combination with spartalizumab, administered intravenously (i.v.) in adult patients with advanced solid tumors.
This study is a FIH, open-label, multi-center, phase I/II, study which consists of a phase I dose escalation part of BLZ945 as single agent (including a separate Japanese BLZ945 single agent dose escalation arm) and in combination with spartalizumab. Alternative dosing regimens of BLZ945 may be evaluated. BLZ945 is being administered orally, and spartalizumab is being administered i.v. every four weeks until patient experiences unacceptable toxicity, progressive disease and/or treatment is discontinued at the discretion of the Investigator or the patient.
BLZ945 dosing is being evaluated on the following schedules, 7 days on/7 days off (i.e., administer BLZ945 every day for 7 days and suspend for 7 days), once weekly (Q1W), and 4 days on/10 days off (i.e., administer BLZ945 every day for 4 days and suspend for 10 days). For each of these schedules, once per day (OD) or twice per day (BID) dosing may be evaluated. For once daily administration, patients should take their dose at approximately the same time in the morning. For the twice a day dosing, the first dose should be taken in the morning and the second dose should be taken approximately 10 to 12 hours after the morning dose.
All patients treated with either BLZ945 single agent or in combination with spartalizumab will begin study treatment on Cycle 1 Day 1. Each cycle will consist of 28 days. […]
As mentioned above, nausea, vomiting have been commonly observed to occur with single-agent administration of BLZ945 in the first-in-human trial (CBLZ945X2101). […] An additional cohort to evaluate 7 days on may also be evaluated.

[3] = system: microglia; experiment: Microglia depletion in lumbar spinal cord, Iba1 qPCR, 8-week SOD1G93A efficacy study (RD-2019-00092); format: in vivo, SOD1G93A mouse; conditions: for microglia depleted (lumbar spinal cord): 8 weeks
Experimental: BLZ945 was dosed over an 8-week period in a mouse model of ALS (in house data). BLZ945 was tested for efficacy in preventing or delaying disease progression in the SOD1G93A ALS mouse (RD-2019-00092). […] Normal body weight gain is also impaired in this model. These physiological impairments are considered as mechanistic readouts given that they best recapitulate the clinical disease phenotype (Turner et al 2013). Animals were dosed from 8 to 16 weeks of age with daily (q.d) doses of BLZ945 at either 65 mg/kg, 170 mg/kg, or 170 mg/kg delivered intermittently with a 7 day ON/7 day OFF regimen.
Microglia were depleted by greater than 90% with the high dose (170 mg/kg) of BLZ945 and by about 50% with the low dose (65 mg/kg). […] Blood and CNS exposure to BLZ945 were measured at 3 hours post-dose on the day of necropsy (Table 8). BLZ945 spinal cord exposure ratios (relative to blood) were consistent across dose groups at approximately 0.4 (Table 9).
FIG. 11: Microglia depletion in the lumbar spinal cord, assessed by Iba1 transcript expression by qPCR. Samples were collected at necropsy on the final day of dosing of the eight-week study. Values are group means±SD (n=12-15). Data are presented as fold changes in comparison to the SOD1 vehicle-treated group. Statistical analyses were by Kruskal-Wallis test with Dunn's multiple comparison

[4] = Blood, brain and spinal cord exposure in SOD1G93A mice, b.i.d. dosing (RD-2019-00111); format: in vivo; conditions: mouse, brain and spinal cord relative to blood, three hours after the final dose, read-out: brain and spinal cord drug exposure relative to blood
Experimental: (§1) Dosing was examined in the SOD1G93A mouse model of ALS, the most commonly used rodent ALS model (RD-2019-00111). Twice daily dosing (b.i.d.) was examined after 5 consecutive dosing days. Microglia were depleted in the cortex by approximately 25% and 75% following treatment with 50 mg/kg and 80 mg/kg BLZ945. BLZ945 dosed b.i.d. at 10 mg/kg was not effective (FIG. 10 A).
(§2) FIG. 10: BLZ945-mediated microglial depletion in the cortex, as assessed by Iba1/Aif-1 immunohistological staining (A) or in spinal cord by qPCR analysis (B) Values are group means±SD (n=3). (C and D) Exposure of BLZ945 in blood and CNS brain and spinal cord 3 hours after the final dose of the study.

[5] = system: microglia; experiment: Microglial depletion in SOD1G93A mice with b.i.d. dosing (RD-2019-00111); format: in vivo, SOD1G93A mouse; conditions: 5 consecutive days
Experimental: as §1, §2

With `CNC(=O)c1cc(Oc2ccc3nc(N[C@@H]4CCCC[C@H]4O)sc3c2)ccn1` [BLZ945, 4-((2-(((1R,2R)-2-hydroxycyclohexyl)amino)benzo[d]thiazol-6-yl)oxy)-N-methylpicolinamide] as the compound, how does the tumor growth inhibition [1] read?
The tumor growth inhibition was “not either of the single agent groups dosed with BLZ945 or anti-PD-1 resulted in a statistically significant tumor growth inhibition”.

And the “most frequently reported AEs (>10%) suspected to be related to treatment” value ([2]; in vivo)?
The value was “aspartate aminotransferase (AST) increased, nausea, vomiting, alanine aminotransferase (ALT) increased, fatigue, amylase increased, blood creatine phosphokinase increased and decreased appetite”.

What about the serum enzyme elevation ([2]; in vivo) of the same compound?
Its serum enzyme elevation is “Asymptomatic serum enzyme elevation including AST, ALT, CK and alkaline phosphatase elevations”.

What about the “suspected SAEs (grade and kind)” value ([2]; single agent arm, combination arm) of the same compound?
The value was “Grade 3 AST increased, Grade 3 asthenia and Grade 4 sudden death”.

What about the “microglia depleted (lumbar spinal cord)” value ([3]; 65 mg/kg q.d.) of the same compound?
Its value is “about 50%”.

What about the “microglia recovery compared to high dose animals” value ([3]; 170 mg/kg 7 day ON/7 day OFF, sacrificed at 7 days off) of the same compound?
The value was “greater than 50%”.

What about the “microglia depleted (lumbar spinal cord)” value ([3]; 170 mg/kg q.d. continuous) of the same compound?
The value was “greater than 90%”.

What about the Kp at 3 h [4] of the same compound?
The Kp at 3 h was ~0.3.

What about the “microglia depletion in the cortex” value ([5]; 10 mg/kg b.i.d.) of the same compound?
Its value is “not effective”.

And the “reduction of microglial markers in spinal cord (qPCR)” value ([5]; 10 mg/kg b.i.d.)?
Its value is “small but non-significant effect”.

What about the “microglia depleted in spinal cord (qPCR of microglial markers)” value ([5]; 50 mg/kg b.i.d.) of the same compound?
Its value is “approximately 55%”.

And the “microglia depleted in the cortex” value ([5]; 50 mg/kg b.i.d.)?
The value was “approximately 25%”.

And the “microglia depleted in spinal cord (qPCR of microglial markers)” value ([5]; 80 mg/kg b.i.d.)?
Its value is ~85%.

And the “microglia depleted in the cortex” value ([5]; 80 mg/kg b.i.d.)?
The value was ~75%.
